The results in this text go back to ChEMBL document CHEMBL5120855, “Potent 2,3-dihydrophthalazine-1,4-dione derivatives as dual inhibitors for mono-ADP-ribosyltransferases PARP10 and PARP15” (Eur J Med Chem, 2022).

This experiment addresses T1, Poly [ADP-ribose] polymerase tankyrase-1 (Homo sapiens, UniProt O95271).
T1 sequence (O95271 whole entry): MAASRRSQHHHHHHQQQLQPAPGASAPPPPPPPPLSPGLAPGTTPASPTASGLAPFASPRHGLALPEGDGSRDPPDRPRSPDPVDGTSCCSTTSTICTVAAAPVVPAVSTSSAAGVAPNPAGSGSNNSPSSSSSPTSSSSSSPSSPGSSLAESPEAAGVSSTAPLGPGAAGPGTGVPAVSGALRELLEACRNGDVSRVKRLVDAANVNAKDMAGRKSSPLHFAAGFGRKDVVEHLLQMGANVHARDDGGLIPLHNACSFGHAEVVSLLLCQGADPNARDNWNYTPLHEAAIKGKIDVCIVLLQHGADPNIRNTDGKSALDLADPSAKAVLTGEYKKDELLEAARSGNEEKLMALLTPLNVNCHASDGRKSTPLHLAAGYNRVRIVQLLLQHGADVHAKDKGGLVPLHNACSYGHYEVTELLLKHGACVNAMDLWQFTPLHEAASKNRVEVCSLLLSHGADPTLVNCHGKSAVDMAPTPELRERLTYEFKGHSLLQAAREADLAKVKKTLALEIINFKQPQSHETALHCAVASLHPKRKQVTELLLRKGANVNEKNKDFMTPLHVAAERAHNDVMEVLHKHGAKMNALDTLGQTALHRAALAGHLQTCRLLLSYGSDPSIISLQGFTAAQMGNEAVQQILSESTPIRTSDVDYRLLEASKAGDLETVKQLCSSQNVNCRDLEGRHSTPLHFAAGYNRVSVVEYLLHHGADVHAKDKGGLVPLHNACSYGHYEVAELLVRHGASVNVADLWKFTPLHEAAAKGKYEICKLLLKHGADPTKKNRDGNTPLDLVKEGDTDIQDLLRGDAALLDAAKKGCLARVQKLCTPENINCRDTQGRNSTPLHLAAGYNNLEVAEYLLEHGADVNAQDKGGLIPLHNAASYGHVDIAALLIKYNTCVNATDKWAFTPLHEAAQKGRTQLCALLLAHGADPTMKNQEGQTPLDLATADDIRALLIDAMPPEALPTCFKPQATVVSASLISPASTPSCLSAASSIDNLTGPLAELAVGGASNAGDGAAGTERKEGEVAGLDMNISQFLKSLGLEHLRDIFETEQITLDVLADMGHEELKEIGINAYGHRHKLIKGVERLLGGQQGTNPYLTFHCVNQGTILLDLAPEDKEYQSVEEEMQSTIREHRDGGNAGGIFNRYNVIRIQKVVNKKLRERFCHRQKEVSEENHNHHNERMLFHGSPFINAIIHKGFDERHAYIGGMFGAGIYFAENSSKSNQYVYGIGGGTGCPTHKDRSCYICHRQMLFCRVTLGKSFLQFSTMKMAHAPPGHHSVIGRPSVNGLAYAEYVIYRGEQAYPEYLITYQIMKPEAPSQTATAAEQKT
In words: Inhibition of human TNKS1.

In general, IC50 refers to the point on the concentration scale where inhibition reaches its midpoint. The low end stands for greater potency, the high end for weaker potency. In the case of `NC(=O)c1ccc(OCC2CCC2)cc1`, the IC50 is more than 100 µM.
